In patent publication US9895370B2, “Pharmaceutical composition for preventing or treating of cirrhosis of liver comprising G protein coupled receptor 119 ligand as an active ingredient” (DONGGUK UNIVERSITY INDUSTRY—ACADEMIC COOPERATION FOUNDATION, priority 2015, dated 2018):

Tested on: human HSC line LX-2
Assay: TGFβ1-inducible collagen I and TGFβ expression in LX-2
Assay type: cell-based
Conditions: LX-2 treated with TGFβ1; FIGS. 2c, 2d
Description: A human HSC line (LX-2, Milipore, U.S.A.) was plated in a 6-well plate, and grown to confluency in DMEM supplemented with 1% penicillin-streptomycin (Hyclone, U.S.A.) and 2% fetal bovine serum (Hyclone, U.S.A.) at 37° C. in a 5% CO2 incubator. For a further experiment, the confluent HSC line was incubated in an FBS-free medium, instead of the 2% FBS-added medium.
Total RNA ([…]) extracted from cells using Trizol and a Maxime RT PreMix Kit (iNtRON Biotechnology, Gyeonggi-do, Korea) was used to obtain cDNA. For RT-PCR, a target gene was amplified by PCR using a Maxime™ PCR PreMix Kit according to the manufacturer's instructions, and subjected to electrophoresis in a 2% agrose gel, thereby identifying the amplified PCR product.
Meanwhile, for real-time RT-qPCR, the synthesized cDNA was assessed in a CFX Connect™ Real-Time PCR Detection System (Bio-Rad Laboratories, CA, USA) instrument using a SYBR green dye (Bio-Rad). The CP value of the gene was calibrated with the CP value of S 18r gene. Also, through a melting curve analysis, specificity of the amplified PCR product was confirmed.
Sodium dodecylsulfate-polyacrylamide gel electrophoresis (SDS-PAGE) was performed using a gel electrophoresis device (Mighty Small SE 250, Hoefer Scientific Instruments, San Francisco) according to the method established by the inventors. A lysed cell fraction was diluted with a sample dilution buffer [63 mM Tris (pH. 6.8), 10% glycerol, 2% SDS, 0.0013% bromophenol blue, 5% β-mercaptoethanol], and subjected to electrophoresis in an electrode buffer (15 g Tris, 72 g glycerin and 5 g SDS contained in an 1 L solution) using a 8-12% gel. After electrophoresis, the gel was transferred to a nitrocellulose membrane to transfer proteins using an electrophoresis device for transfer in a transfer buffer (25 mM Tris, 192 mM glycerin, 20% v/v methanol (pH. 8.3)] at 40 mA for 3 hours. The nitrocellulose membrane was reacted with first antibodies, reacted with horseradish peroxidase-conjugated goat anti-rabbit IgG and horseradish peroxidase-conjugated goat anti-mouse IgG as secondary antibodies for 1 hour, and visualized using an ECL chemiluminescence system (Amersham, Gaithesberg, Mass.).
A critical cytokine having an influence on the induction of liver fibrosis, TGFβ1, is a potent fibrosis stimulation factor for HSCs. To examine the expression of a liver fibrosis-inducing factor which was increased when the human liver cell line LX-2, cultured by method D was treated with TGFβ1, changes in expression according to the treatment with GPR119 ligands (MBX-2982, GSK1292263) were assessed by the methods described in G and H, thereby observing the effect of the GPR119 ligands.

CC(C)c1noc(N2CCC(COc3ccc(-c4ccc(S(C)(=O)=O)cc4)nc3)CC2)n1 [GSK1292263, 3-isopropyl-5-(4-(((6-(4-(methylsulfonyl)phenyl)pyridin-3-yl)oxy)methyl)piperidin-1-yl)-1,2,4-oxadiazole]
expression of TGFβ1-inducible TGFβ: inhibited
expression of TGFβ1-inducible collagen I: inhibited
